Measurements from ChEMBL document CHEMBL1146372, “Total synthesis of (R,R,R)- and (S,S,S)-schweinfurthin F: differences of bioactivity in the enantiomeric series” (Bioorg Med Chem Lett, 2007).

Columns and labels:
[1] = Growth inhibition of NCI60 cells after 48 hrs; type: functional; conditions: Homo sapiens, NCI60, 48 h
SNB-75 = test: Growth inhibition of SNB75 cells; type: functional; conditions: Homo sapiens
U-251 = test: Growth inhibition of U251 cells; type: functional; conditions: Homo sapiens
Hs-578T = test: Growth inhibition of HS578T cells; type: functional; conditions: Homo sapiens
RPMI = test: Inhibition of DNA synthesis in human RPMI cells by [3H]-thymidine incorporation assay; type: functional, cell-based

| SMILES | GI50 [1] | GI50 (SNB-75) | GI50 (U-251) | GI50 (Hs-578T) | IC50 (RPMI) |
| --- | --- | --- | --- | --- | --- |
| COc1cc(/C=C/c2cc3c(c(OC)c2)O[C@]2(C)CC[C@@H](O)C(C)(C)[C@H]2C3)cc(O)c1CC=C(C)C | 0.87 µM | – | – | – | – |
| COc1cc(/C=C/c2cc3c(c(OC)c2)O[C@@]2(C)CC[C@H](O)C(C)(C)[C@@H]2C3)cc(O)c1CC=C(C)C | 4.6 µM | – | – | – | – |
| COc1cc(/C=C/c2cc(O)c(CC=C(C)C)c(O)c2)cc2c1O[C@@]1(C)CC[C@H](O)C(C)(C)[C@@H]1C2 (single isomer, unassigned) | 0.13 µM | 1.7 µM | < 0.01 µM | < 0.01 µM | 3.4 µM |
| COc1cc(/C=C/c2cc(O)c(C/C=C(\C)CCC=C(C)C)c(O)c2)cc2c1O[C@@]1(C)CC[C@H](O)C(C)(C)[C@@H]1C2 (single isomer, unassigned) | 2.2 µM | – | – | – | 4.5 µM |
| COc1cc(/C=C/c2cc(O)c(C/C=C(\C)CCC=C(C)C)c(O)c2)cc2c1O[C@]1(C)CC[C@@H](O)C(C)(C)[C@H]1C2 (single isomer, unassigned) [3-DEOXYSCHWEINFURTHIN B] | 0.87 µM | – | – | – | 0.21 µM |
| COc1cc(/C=C/c2cc(O)c(CC=C(C)C)c(O)c2)cc2c1O[C@]1(C)CC[C@@H](O)C(C)(C)[C@H]1C2 (single isomer, unassigned) [SCHWEINFURTHIN F] | 0.41 µM | 0.01 µM | 13 µM | < 0.01 µM | 0.58 µM |
| CC(C)=CCC/C(C)=C/Cc1c(O)cc(/C=C/c2cc(O)c3c(c2)C[C@@H]2C(C)(C)[C@H](O)[C@H](O)C[C@@]2(C)O3)cc1O [SCHWEINFURTHIN A] | 0.36 µM | – | – | – | – |
| COc1cc(/C=C/c2cc(O)c(C/C=C(\C)CCC=C(C)C)c(O)c2)cc2c1O[C@]1(C)C[C@@H](O)[C@@H](O)C(C)(C)[C@H]1C2 [SCHWEINFURTHIN B] | 0.81 µM | – | – | – | – |
| CC(C)=CCc1c(O)cc(/C=C/c2cc(O)c3c(c2)C[C@@H]2C(C)(C)[C@H](O)[C@H](O)C[C@@]2(C)O3)cc1O [VEDELIANIN] | 0.08 µM | – | – | – | – |
